The test system of the assay is L1210 leukemia ip in BDF1 mice, survival T/C. The assay is described as follows: NCI In Vivo Anticancer Drug Screen. Data for tumor model L1210 Leukemia (intraperitoneal) in B6D2F1 (BDF1) mice. Particulars: endpoint: mean survival time, higher = longer survival. The procedure, abridged:
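Transplantable tumor model; survival measured in treated vs vehicle control mice. Value = treated/control.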

[1] abbreviates: dose: 100.0 mg/kg/injection, schedule: Q01DX009 (ip), vehicle: saline with Tween-80.
[2] abbreviates: dose: 200.0 mg/kg/injection, schedule: Q01DX009 (ip), vehicle: saline with Tween-80.
Where [3] appears, read: dose: 400.0 mg/kg/injection, schedule: Q01DX009 (ip), vehicle: saline with Tween-80.
Setting [4] is: dose: 50.0 mg/kg/injection, schedule: Q04DX002 (ip), vehicle: Klucel (hydroxypropylcellulose) (HPC).
Setting [5] is: dose: 100.0 mg/kg/injection, schedule: Q04DX002 (ip), vehicle: Klucel (hydroxypropylcellulose) (HPC).
Setting [6] is: dose: 200.0 mg/kg/injection, schedule: Q04DX002 (ip), vehicle: Klucel (hydroxypropylcellulose) (HPC).
[7] abbreviates: dose: 100.0 mg/kg/injection, schedule: Q04DX003 (ip), vehicle: saline with Tween-80.
Where [8] appears, read: dose: 200.0 mg/kg/injection, schedule: Q04DX003 (ip), vehicle: saline with Tween-80.
[9] abbreviates: dose: 100.0 mg/kg/injection, schedule: Q01DX009 (ip), vehicle: Klucel (hydroxypropylcellulose) (HPC).
The mark [10] stands for this setting: dose: 100.0 mg/kg/injection, schedule: Q04DX003 (ip), vehicle: Klucel (hydroxypropylcellulose) (HPC).
The mark [11] stands for this setting: dose: 200.0 mg/kg/injection, schedule: Q01DX009 (ip), vehicle: Klucel (hydroxypropylcellulose) (HPC).
Setting [12] is: dose: 200.0 mg/kg/injection, schedule: Q04DX003 (ip), vehicle: Klucel (hydroxypropylcellulose) (HPC).
Setting [13] is: dose: 400.0 mg/kg/injection, schedule: Q01DX009 (ip), vehicle: Klucel (hydroxypropylcellulose) (HPC).
[14] abbreviates: dose: 400.0 mg/kg/injection, schedule: Q04DX003 (ip), vehicle: Klucel (hydroxypropylcellulose) (HPC).
The mark [15] stands for this setting: dose: 100.0 mg/kg/injection, schedule: Q01DX001 (ip), vehicle: saline.
[16] abbreviates: dose: 200.0 mg/kg/injection, schedule: Q01DX001 (ip), vehicle: saline.
[17] abbreviates: dose: 400.0 mg/kg/injection, schedule: Q04DX002 (ip), vehicle: Klucel (hydroxypropylcellulose) (HPC).

23 molecules from PubChem BioAssay AID248 (DTP/NCI, 2004) can be followed below.

Molecules are shown by their SMILES. Values joined by “and” are separate entries in the source; they are usually repeats but may differ in a detail not shown here. Identical values can stand only once. Toxic doses and inconclusive results are not listed.

Take `C/C(=C\c1ccc([N+](=O)[O-])cc1)C(=O)Nc1ccc(S(=O)(=O)F)cc1`: the T/C is 95 % of control under setting [1], 93 % of control under setting [2] and 98 % of control under setting [3].
In the case of `CCCc1c(Cl)nc(Cl)nc1Cl`, the T/C (dose: 37.5 mg/kg/injection, schedule: Q01DX009 (ip), vehicle: acetone) was 111 % of control; the T/C (dose: 66.0 mg/kg/injection, schedule: Q04DX003 (ip), vehicle: saline) is 104 % of control and 105 % of control; the T/C (dose: 100.0 mg/kg/injection, schedule: Q01DX001 (ip), vehicle: carboxymethylcellulose (CMC)) is 100 % of control; the T/C (dose: 100.0 mg/kg/injection, schedule: Q04DX003 (ip), vehicle: saline) is 100 % of control and 104 % of control; the T/C (dose: 150.0 mg/kg/injection, schedule: Q04DX003 (ip), vehicle: saline) is 106 % of control and 107 % of control; the T/C (dose: 200.0 mg/kg/injection, schedule: Q01DX001 (ip), vehicle: carboxymethylcellulose (CMC)) is 108 % of control. Moreover, the T/C (dose: 400.0 mg/kg/injection, schedule: Q01DX001 (ip), vehicle: carboxymethylcellulose (CMC)) was 96 % of control.
Take `CC(=O)Oc1ccc([N+](=O)[O-])cc1`: the T/C runs as follows: (dose: 25.0 mg/kg/injection, schedule: Q04DX002 (ip), vehicle: Klucel (hydroxypropylcellulose) (HPC)) 102 % of control; under setting [4], 89 % of control; under setting [5], 90 % of control; under setting [6], 92 % of control and 96 % of control.
Turning to `CS(=O)(=O)OCCN(CCOS(C)(=O)=O)c1ccc(N=O)c(F)c1`, the T/C by setting is: (dose: 7.0 mg/kg/injection, schedule: Q01DX001 (ip), vehicle: saline) 151 % of control; (dose: 40.0 mg/kg/injection, schedule: Q01DX001 (ip), vehicle: saline) 98 % of control; (dose: 80.0 mg/kg/injection, schedule: Q01DX001 (ip), vehicle: saline) 93 % of control.
On to `O=c1[nH]c(=O)n(CC(O)c2ccc(Cl)s2)cc1F` (stereo unspecified), for which the T/C was 100 % of control under setting [1]; 100 % of control under setting [7]; 101 % of control under setting [2]; 96 % of control under setting [8]; 95 % of control under setting [3]; 97 % of control (dose: 400.0 mg/kg/injection, schedule: Q04DX003 (ip), vehicle: saline with Tween-80).
In the case of `O=C(O)c1c(F)cccc1Cl`, the T/C is, setting by setting: (dose: 100.0 mg/kg/injection, schedule: Q04DX002 (ip), vehicle: saline with Tween-80) 93 % of control; (dose: 200.0 mg/kg/injection, schedule: Q04DX002 (ip), vehicle: saline with Tween-80) 108 % of control; (dose: 400.0 mg/kg/injection, schedule: Q04DX002 (ip), vehicle: saline with Tween-80) 106 % of control.
On to `O=C1OC(C(Cl)(Cl)Cl)OC1C(Cl)(Cl)Cl` (stereo unspecified), for which the T/C (dose: 25.0 mg/kg/injection, schedule: Q01DX001 (ip), vehicle: saline with Tween-80) is 98 % of control; the T/C (dose: 50.0 mg/kg/injection, schedule: Q01DX001 (ip), vehicle: saline with Tween-80) was 96 % of control; the T/C (dose: 100.0 mg/kg/injection, schedule: Q01DX001 (ip), vehicle: saline with Tween-80) is 93 % of control.
As for `OC1CC2CCC(C1)N2` (stereo unspecified), the T/C was 95 % of control (dose: 75.0 mg/kg/injection, schedule: Q01DX001 (ip), vehicle: saline) and 91 % of control (dose: 150.0 mg/kg/injection, schedule: Q01DX001 (ip), vehicle: saline).
Regarding `OC1(C2(O)CCCCC2)CCCCC1`, the T/C is 101 % of control (dose: 100.0 mg/kg/injection, schedule: Q04DX002 (ip), vehicle: gum acacia); 104 % of control (dose: 200.0 mg/kg/injection, schedule: Q04DX002 (ip), vehicle: gum acacia); 96 % of control (dose: 400.0 mg/kg/injection, schedule: Q04DX002 (ip), vehicle: gum acacia).
Take `CCCCC1=C(c2ccccc2)C(=O)OC1=O`: the T/C was 95 % of control under setting [9]; 88 % of control under setting [10]; 95 % of control under setting [11]; 98 % of control under setting [12]; 100 % of control under setting [13]; 89 % of control under setting [14].
For the molecule `Cc1cc(C)c(CCN(C)C)c(C)c1C`, the T/C is, setting by setting: (dose: 50.0 mg/kg/injection, schedule: Q01DX001 (ip), vehicle: saline) 103 % of control; under setting [15], 101 % of control; under setting [16], 101 % of control.
On to `O=C(Nc1ccccc1Cl)Oc1ccc(-c2ccccc2)cc1`, for which the T/C by setting is: under setting [5], 95 % of control; under setting [6], 95 % of control; under setting [17], 106 % of control.
As to `NC(=O)CC1=NCCc2ccccc21`, the T/C is, setting by setting: under setting [15], 108 % of control; under setting [16], 108 % of control.
On to `Cc1ccccc1N=P(c1ccccc1)(c1ccccc1)c1ccccc1`, for which the T/C runs as follows: (dose: 100.0 mg/kg/injection, schedule: Q01DX009 (ip), vehicle: gum acacia) 100 % of control; (dose: 100.0 mg/kg/injection, schedule: Q04DX003 (ip), vehicle: gum acacia) 93 % of control; (dose: 200.0 mg/kg/injection, schedule: Q01DX009 (ip), vehicle: gum acacia) 102 % of control; (dose: 200.0 mg/kg/injection, schedule: Q04DX003 (ip), vehicle: gum acacia) 90 % of control; (dose: 400.0 mg/kg/injection, schedule: Q04DX003 (ip), vehicle: gum acacia) 93 % of control.
Consider `O=C(O)CSC(=S)SCC(=O)O`, for which the T/C is, setting by setting: under setting [9], 100 % of control; under setting [10], 100 % of control; under setting [11], 97 % of control; under setting [12], 105 % of control; under setting [14], 101 % of control.
As for `Cc1ccc(C)c(N=C=O)c1`, the T/C reads like this: (dose: 6.25 mg/kg/injection, schedule: Q01DX009 (ip), vehicle: saline with Tween-80) 98 % of control; (dose: 12.5 mg/kg/injection, schedule: Q01DX009 (ip), vehicle: saline with Tween-80) 96 % of control; (dose: 25.0 mg/kg/injection, schedule: Q01DX009 (ip), vehicle: saline with Tween-80) 93 % of control; under setting [7], 104 % of control; under setting [8], 109 % of control.
On to `CC1(C)OCC(CO)(Nc2nc(N3CC3)nc(N3CC3)n2)CO1`, for which the T/C reads like this: (dose: 0.31 mg/kg/injection, schedule: Q01DX009 (ip), vehicle: saline) 105 % of control; (dose: 0.62 mg/kg/injection, schedule: Q01DX009 (ip), vehicle: saline) 111 % of control; (dose: 2.5 mg/kg/injection, schedule: Q01DX009 (ip), vehicle: saline) 152 % of control and 168 % of control; (dose: 7.5 mg/kg/injection, schedule: Q01DX009 (ip), vehicle: saline) 101 % of control.
Consider `CN=C(N)C(C)SS(=O)(=O)O` (stereo unspecified), for which the T/C is 101 % of control (dose: 50.0 mg/kg/injection, schedule: Q01DX009 (ip), vehicle: Klucel (hydroxypropylcellulose) (HPC)); 106 % of control under setting [4]; 107 % of control under setting [9]; 92 % of control under setting [5]; 104 % of control under setting [11]; 89 % of control and 91 % of control under setting [6].
With `O=C(NCc1ccccc1Cl)NC1CCCCC1`, the T/C by setting is: under setting [5], 87 % of control; under setting [6], 102 % of control; under setting [17], 105 % of control.
Take `O=[N+]([O-])c1ccc(OCc2ccccc2)nc1`: the T/C reads like this: under setting [1], 104 % of control; under setting [2], 97 % of control; under setting [3], 93 % of control.
Turning to `Cc1cc([N+](=O)[O-])ccc1NC(=O)c1c(Cl)c(Cl)c(C(=O)Nc2ccc([N+](=O)[O-])cc2C)c(Cl)c1Cl`, the T/C reads like this: under setting [9], 101 % of control; under setting [11], 94 % of control; under setting [13], 103 % of control.
Turning to `CC(=O)Nc1ccc(CCCCc2c(C)nc(NC(C)=O)[nH]c2=O)cc1`, the T/C by setting is: (dose: 100.0 mg/kg/injection, schedule: Q01DX001 (ip), vehicle: Klucel (hydroxypropylcellulose) (HPC)) 91 % of control; (dose: 200.0 mg/kg/injection, schedule: Q01DX001 (ip), vehicle: Klucel (hydroxypropylcellulose) (HPC)) 89 % of control.
For the molecule `CCS(=O)(=O)/C=C/c1ccc2ccccc2n1`, the T/C is, setting by setting: under setting [5], 104 % of control; under setting [6], 100 % of control.
